From patent US8598125B2, “CDCA1 peptide and pharmaceutical agent comprising the same” (Onco Therapy Science, Inc., priority 2007, dated 2013)
Where no end group is shown, it is not given here.

Experiments:
Format in all cases: cell-based
[1] = system: peptide-pulsed T2 cells; experiment: 51Cr release assay of peptide-induced human CTLs against peptide-pulsed T2 cells; details: CTLs from cancer patient donor 1 and healthy donor 1
Excerpt: (§1) Monocyte-derived DC cells were used as antigen-presenting cells for induction of CTLs in response to HLA-presented peptides. DCs were obtained by previously reported in vitro methods (Suda T, et al. Cancer Sci. 2007; Nakahara S, et al. Cancer Res. 2003; 63:4112-8). Briefly, peripheral blood […] (PBMCs) isolated from HLA-A*0201 positive healthy volunteers and NSCLC patients using a Ficoll-Paque solution (GE Healthcare UK, Ltd., Buckinghamshire, UK) were screened for […] CD14 positive populations using MicroBeads (Miltenyi Biotec, Bergisch Gladbach, Germany). […] Six days after the third peptide stimulation on day 25, the antigen-specific CTL response was evaluated by Chromium (Cr) release assay and IFN-γ ELISPOT assay.
(§2) CTLs were co-cultured at various effector cell/target cell ratios with target cells which are various cancer cell lines and T2 cells with or without peptide pulsing, and ^51Cr release assay and IFN-γ ELISPOT assay were conducted using conventional methods (Komori H, et al., Clin. Cancer Res. 2006; 12:2689-2697; Makita M, et al. Clin. Cancer Res. 2002; 8:2626-31; Yokomine K, et al. Cancer Sci. 2007; 98:1930-5). […] Six hours after incubation, 50 μL of the supernatant was collected from each well, and radioactivity was quantified using a gamma counter. […]

[2] = system: PANC1 cells (CDCA1+, HLA-A2+); experiment: 51Cr release assay of peptide-induced human CTLs against PANC1; details: No. 1: cancer patient donor 1 CTLs; No. 4: healthy donor 1 CTLs
Excerpt: as §1, §2

[3] = system: A549 cells (CDCA1+, HLA-2−); experiment: 51Cr release assay of peptide-induced human CTLs against A549; details: No. 1: cancer patient donor 1 CTLs; No. 4: healthy donor 1 CTLs
Excerpt: as §1, §2

[4] = system: COLO201 cells (CDCA1−, HLA-A2+); experiment: 51Cr release assay of peptide-induced human CTLs against COLO201; details: cancer patient donor 1 CTLs
Excerpt: as §1, §2

Sequence | cytotoxic activity against peptide-pulsed T2 cells [1] | cytotoxic activity against PANC1 cells [2] | cytotoxic activity against A549 cells [3] | cytotoxic activity against COLO201 cells [4]
KLATAQFKI [No. 4, KLATAQFKI] | showed cytotoxic activity | showed cytotoxic activity | not | –
YMMPVNSEV [No. 1, YMMPVNSEV] | showed cytotoxic activity | showed cytotoxic activity | not | not
